From US10570123B2 (SURFACE LOGIX, LLC, priority 2005, dated 2020)

Key:
[1] = target: ROCK2 (Homo sapiens (Human), UniProt O75116); assay: Inhibition of ROCK2; format: biochemical; conditions: FIG. 10 legend, qualitative
Description: Methods of determining kinase inhibition are well known in the art. For example, kinase activity of an enzyme and the inhibitory capacity of a test compound can be determined by measuring enzyme specific phosphorylation of a substrate. Commercial assays and kits can be employed. For example, kinase inhibition can be determined using an IMAP® assay (Molecular Devices). This assay method involves the use of a fluorescently-tagged peptide substrate. Phosphorylation of the tagged peptide by a kinase of interest promotes binding of the peptide to a trivalent metal-based nanoparticle via the specific, high affinity interaction between the phospho-group and the trivalent metal. Proximity to the nanoparticle results in increased fluorescence polarization. Inhibition of the kinase by a kinase inhibitor prevents phosphorylation of the substrate and thereby limits binding of the fluorescently-tagged substrate to the nanoparticle. […]
ROCK-II inhibitory activity can be measured using the ROCK-II Assay Kit (Molecular Devices, inc.; Sunnyvale, Calif.).
Inhibition of ROCK2 by various compounds was determined.
Inhibitory activity for Rho kinase was determined for examples of compounds of the present invention. […] For each of these compounds their inhibitory activity for both ROCK 1 and ROCK 2 was determined. […]

[2] = system: PKC; assay: Inhibition of PKC (FIG. 10 comparison); format: biochemical; conditions: FIG. 10 legend, qualitative

ROCK2, sequence (O75116 whole entry, species assumed): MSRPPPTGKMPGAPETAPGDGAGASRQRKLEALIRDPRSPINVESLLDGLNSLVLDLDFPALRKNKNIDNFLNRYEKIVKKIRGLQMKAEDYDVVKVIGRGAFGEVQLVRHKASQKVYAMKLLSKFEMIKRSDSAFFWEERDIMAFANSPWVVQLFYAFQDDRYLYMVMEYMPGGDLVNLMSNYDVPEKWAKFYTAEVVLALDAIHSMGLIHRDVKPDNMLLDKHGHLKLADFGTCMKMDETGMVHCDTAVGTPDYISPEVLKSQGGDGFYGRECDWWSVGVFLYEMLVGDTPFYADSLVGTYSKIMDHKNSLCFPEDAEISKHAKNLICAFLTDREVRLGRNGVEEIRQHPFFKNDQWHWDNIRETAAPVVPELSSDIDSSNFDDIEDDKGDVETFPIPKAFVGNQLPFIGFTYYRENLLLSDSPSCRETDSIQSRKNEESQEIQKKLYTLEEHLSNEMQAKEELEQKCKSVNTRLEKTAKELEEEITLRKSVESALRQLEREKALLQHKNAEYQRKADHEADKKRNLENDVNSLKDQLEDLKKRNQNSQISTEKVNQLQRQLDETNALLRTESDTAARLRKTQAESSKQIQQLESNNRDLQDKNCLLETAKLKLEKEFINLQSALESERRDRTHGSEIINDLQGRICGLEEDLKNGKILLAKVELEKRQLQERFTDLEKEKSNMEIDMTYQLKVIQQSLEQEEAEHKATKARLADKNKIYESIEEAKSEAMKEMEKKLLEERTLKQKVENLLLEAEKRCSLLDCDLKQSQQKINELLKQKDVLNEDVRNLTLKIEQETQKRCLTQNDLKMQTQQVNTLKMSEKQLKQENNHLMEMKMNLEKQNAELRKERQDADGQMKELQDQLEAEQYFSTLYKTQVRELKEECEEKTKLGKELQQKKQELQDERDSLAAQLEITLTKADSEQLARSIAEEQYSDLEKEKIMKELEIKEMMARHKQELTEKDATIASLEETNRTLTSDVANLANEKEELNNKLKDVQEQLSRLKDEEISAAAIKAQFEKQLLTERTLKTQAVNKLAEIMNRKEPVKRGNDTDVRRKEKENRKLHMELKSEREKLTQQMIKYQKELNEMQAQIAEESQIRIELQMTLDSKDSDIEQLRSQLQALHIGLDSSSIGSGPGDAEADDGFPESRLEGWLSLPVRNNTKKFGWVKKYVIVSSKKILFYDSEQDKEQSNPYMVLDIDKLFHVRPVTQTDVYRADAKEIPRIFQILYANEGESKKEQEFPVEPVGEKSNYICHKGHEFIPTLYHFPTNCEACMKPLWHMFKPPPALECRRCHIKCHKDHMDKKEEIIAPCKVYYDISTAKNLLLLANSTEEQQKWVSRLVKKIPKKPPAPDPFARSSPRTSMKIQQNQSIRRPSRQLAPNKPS

Row | inhibition of ROCK2 (FIG. 10) [1] | SMILES | inhibition of PKC (FIG. 10) [2]
1 | specific inhibition of ROCK2 | CC(C)NC(=O)COc1cccc(-c2nc(Nc3ccc4[nH]ncc4c3)c3ccccc3n2)c1 [Example 82, 2-(3-(4-(1H-indazol-5-ylamino)quinazolin-2-yl)phenoxy)-N-isopropylacetamide] | 
2 | inhibits | C[C@@H](N)[C@H]1CC[C@H](C(=O)Nc2ccncc2)CC1 [Example Y27632] | inhibits
